For 16 compounds, IC50 and Ki results are on record in ChEMBL document CHEMBL1909046, “DrugMatrix in vitro pharmacology data”.

Data set [1] has as its target Voltage-gated inwardly rectifying potassium channel KCNH2 (Homo sapiens, UniProt Q12809). The conditions noted are these: hek293. Further: in other assays of this panel Not Active means under 50% inhibition at 10 µM.
Data set [2] deals with T1, 5-hydroxytryptamine receptor 2C (Homo sapiens, UniProt P28335).
T1 sequence (P28335 whole entry): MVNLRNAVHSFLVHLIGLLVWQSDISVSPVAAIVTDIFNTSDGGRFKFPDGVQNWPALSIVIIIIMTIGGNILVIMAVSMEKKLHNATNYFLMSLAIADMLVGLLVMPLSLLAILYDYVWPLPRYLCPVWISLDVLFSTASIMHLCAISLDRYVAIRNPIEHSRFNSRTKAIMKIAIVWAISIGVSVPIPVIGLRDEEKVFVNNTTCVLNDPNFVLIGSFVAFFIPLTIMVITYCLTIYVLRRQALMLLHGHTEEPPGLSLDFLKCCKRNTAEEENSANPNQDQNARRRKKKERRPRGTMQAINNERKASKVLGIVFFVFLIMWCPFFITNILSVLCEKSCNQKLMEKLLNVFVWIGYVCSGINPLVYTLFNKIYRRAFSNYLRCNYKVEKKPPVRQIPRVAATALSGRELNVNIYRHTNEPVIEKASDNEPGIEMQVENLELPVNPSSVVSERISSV
The experiment in a line: DRUGMATRIX: Serotonin (5-Hydroxytryptamine) 5-HT2C radioligand binding (ligand: [3H] Mesulergine). The conditions noted are these: Not Active = under 50% inhibition at 10 µM. The class given is cell membranes, CHO-K1, Membrane.

Data set [3] can be described thus: DRUGMATRIX: Platelet-Derived Growth Factor (PDGF) radioligand binding (ligand: [125I] PDGF). The class given is cell-based. As to conditions: nih3t3; Not Active = under 50% inhibition at 10 µM.
The target of data set [4] is C-C chemokine receptor type 2 (Homo sapiens, UniProt P41597). It is filed as cell membranes, CHO-K1, Membrane. The conditions noted are these: cho-k1. Further: in other assays of this panel Not Active means under 50% inhibition at 10 µM.
A short description of data set [5]: DRUGMATRIX: Atrial Natriuretic Factor (ANF) radioligand binding (ligand: [125I] ANF (rat)). The class given is cell membranes, Cavia porcellus, Dunkin-Hartley, Adrenal gland, Membrane. The conditions noted are these: Not Active = under 50% inhibition at 10 µM.
A further data set addresses Glycine receptor (Rattus norvegicus, UniProt P22771+P24524+P07727+P20781). It is filed as cell membranes, Wistar, Spinal cord, Membrane.
In data set [6] the target is Kappa-type opioid receptor (Homo sapiens, UniProt P41145). The experiment in a line: DRUGMATRIX: Opiate kappa (OP2, KOP) radioligand binding (ligand: [3H] Diprenorphine). It is filed as cell membranes, HEK293, Membrane. As to conditions: hek293; Not Active = under 50% inhibition at 10 µM.
The target of data set [7] is Protein kinase C alpha type (Homo sapiens, UniProt P17252). It is filed as cell-based. As to conditions: sf9.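 Further: inhibition of PKCalpha kinase activity measured in an enzyme assay with histone as the phosphorylation substrate; in other assays of this panel Not Active means under 50% inhibition at 10 µM.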

Kappa-type opioid receptor, sequence (P41145 whole entry): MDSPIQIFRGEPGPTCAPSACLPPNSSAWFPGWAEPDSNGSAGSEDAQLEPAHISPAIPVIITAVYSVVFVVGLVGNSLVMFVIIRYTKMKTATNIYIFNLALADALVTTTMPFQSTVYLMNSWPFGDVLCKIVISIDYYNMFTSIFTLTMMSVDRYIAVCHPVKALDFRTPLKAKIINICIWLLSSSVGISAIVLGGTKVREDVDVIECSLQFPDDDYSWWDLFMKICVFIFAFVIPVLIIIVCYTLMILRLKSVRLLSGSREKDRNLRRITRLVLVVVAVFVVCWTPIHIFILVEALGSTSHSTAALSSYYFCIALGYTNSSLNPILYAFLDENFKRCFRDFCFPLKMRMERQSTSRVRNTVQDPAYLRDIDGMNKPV
C-C chemokine receptor type 2, sequence (P41597 whole entry): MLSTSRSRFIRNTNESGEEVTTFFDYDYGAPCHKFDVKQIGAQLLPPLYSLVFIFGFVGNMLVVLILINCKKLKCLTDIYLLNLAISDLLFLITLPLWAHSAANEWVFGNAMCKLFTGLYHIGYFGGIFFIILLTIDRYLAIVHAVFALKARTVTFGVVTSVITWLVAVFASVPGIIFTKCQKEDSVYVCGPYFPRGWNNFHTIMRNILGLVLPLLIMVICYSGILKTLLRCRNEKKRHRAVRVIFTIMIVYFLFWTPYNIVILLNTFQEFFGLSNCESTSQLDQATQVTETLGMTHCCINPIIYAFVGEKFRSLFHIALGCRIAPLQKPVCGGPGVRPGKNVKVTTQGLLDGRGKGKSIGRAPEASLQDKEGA
Voltage-gated inwardly rectifying potassium channel KCNH2, sequence (Q12809 whole entry): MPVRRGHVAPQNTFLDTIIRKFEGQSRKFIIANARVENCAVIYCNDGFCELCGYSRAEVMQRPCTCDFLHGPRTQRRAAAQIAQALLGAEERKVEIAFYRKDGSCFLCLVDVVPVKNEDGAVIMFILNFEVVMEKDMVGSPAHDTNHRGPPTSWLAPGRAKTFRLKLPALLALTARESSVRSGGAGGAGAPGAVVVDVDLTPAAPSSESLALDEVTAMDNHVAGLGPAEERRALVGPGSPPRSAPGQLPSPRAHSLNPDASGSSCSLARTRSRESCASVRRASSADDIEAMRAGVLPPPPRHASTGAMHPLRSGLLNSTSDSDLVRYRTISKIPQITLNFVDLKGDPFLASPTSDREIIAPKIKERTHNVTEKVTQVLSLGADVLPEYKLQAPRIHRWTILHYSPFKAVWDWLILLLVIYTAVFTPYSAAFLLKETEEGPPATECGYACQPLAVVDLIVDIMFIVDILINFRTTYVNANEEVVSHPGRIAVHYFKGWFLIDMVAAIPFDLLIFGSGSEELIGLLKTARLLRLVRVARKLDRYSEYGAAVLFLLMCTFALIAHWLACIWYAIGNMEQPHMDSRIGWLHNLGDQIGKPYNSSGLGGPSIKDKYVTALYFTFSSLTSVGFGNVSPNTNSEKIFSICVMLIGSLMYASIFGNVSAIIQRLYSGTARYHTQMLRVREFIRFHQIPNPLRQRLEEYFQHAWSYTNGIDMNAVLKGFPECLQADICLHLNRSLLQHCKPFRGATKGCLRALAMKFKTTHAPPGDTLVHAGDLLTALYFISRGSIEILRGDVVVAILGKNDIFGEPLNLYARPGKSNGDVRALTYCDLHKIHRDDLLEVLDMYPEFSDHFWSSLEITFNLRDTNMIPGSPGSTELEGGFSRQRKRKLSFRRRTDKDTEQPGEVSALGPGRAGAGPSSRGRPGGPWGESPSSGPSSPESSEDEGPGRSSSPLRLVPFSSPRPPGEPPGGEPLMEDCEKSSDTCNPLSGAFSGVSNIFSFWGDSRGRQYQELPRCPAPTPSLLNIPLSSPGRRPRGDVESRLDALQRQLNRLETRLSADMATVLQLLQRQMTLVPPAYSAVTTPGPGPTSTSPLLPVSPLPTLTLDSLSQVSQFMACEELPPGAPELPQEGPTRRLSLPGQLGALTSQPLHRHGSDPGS

The term IC50 denotes the midpoint of a concentration-inhibition curve. Usually Ki stands for the equilibrium dissociation constant of an inhibitor or competing ligand from its target. `CC1=C(CC(=O)O)c2cc(F)ccc2/C1=C\c1ccc(S(C)(=O)=O)cc1` [EXISULIND]: the IC50 result (in data set [1]; in data set [2] (cho-k1); in data set [3]; in data set [4]; in data set [5]; at Glycine receptor) was “Not Active” in each case. The IC50 result in data set [6] and in data set [7] was “Not Active” throughout. Further, the Ki entry in data set [1], in data set [3] and in data set [5] was “Not Active” each time.

As to `Nc1nc2c(c(=O)[nH]1)N(C=O)C(CNc1ccc(C(=O)N[C@@H](CCC(=O)O)C(=O)O)cc1)CN2` (some centres not stated) [LEUCOVORIN], the IC50 entry (in data set [1]; in data set [2] (cho-k1); in data set [3]; in data set [4]; in data set [5]; against Glycine receptor) was “Not Active” throughout. Besides, the IC50 entry in data set [6] and in data set [7] was “Not Active” throughout. Also, the Ki entry in data set [1], in data set [3] and in data set [5] was “Not Active” each time.

Take `C[C@@H](O)[C@H]1C(=O)N2C(C(=O)O)=C(S[C@@H]3CN[C@H](C(=O)N(C)C)C3)[C@H](C)[C@H]12` [MEROPENEM]: the concentration for half-maximal inhibition (IC50) result (in data set [1]; in data set [2] (cho-k1); in data set [3]; in data set [4]; in data set [5]; on Glycine receptor) was “Not Active” throughout. Moreover, the IC50 entry in data set [6] and in data set [7] was “Not Active” throughout. Also, the Ki result in data set [1], in data set [3] and in data set [5] was “Not Active” throughout.

For `O=P(O)(O)C(O)(Cc1cccnc1)P(=O)(O)O` [RISEDRONIC ACID], the IC50 entry (in data set [1]; in data set [2] (cho-k1); in data set [3]; in data set [4]; in data set [5]; on Glycine receptor) was “Not Active” in each case. Further, the IC50 entry in data set [6] and in data set [7] was “Not Active” in each case. The Ki result in data set [1], in data set [3] and in data set [5] was “Not Active” throughout.

As to `CN(CCOc1ccc(CC2SC(=O)NC2=O)cc1)c1ccccn1` (configuration not stated) [ROSIGLITAZONE], the IC50 entry (in data set [1]; in data set [2] (cho-k1); in data set [3]; in data set [4]; in data set [5]; against Glycine receptor) was “Not Active” in each case. The IC50 result in data set [6] and in data set [7] was “Not Active” each time. In addition, the Ki result in data set [1], in data set [3] and in data set [5] was “Not Active” throughout.

For `C#CCN(C)[C@H](C)Cc1ccccc1` [SELEGILINE], the IC50 entry (in data set [1]; in data set [2] (cho-k1); in data set [3]; in data set [4]; in data set [5]; against Glycine receptor) was “Not Active” each time. Moreover, the IC50 result in data set [6] and in data set [7] was “Not Active” in each case. Also, the Ki entry in data set [1], in data set [3] and in data set [5] was “Not Active” throughout.

Consider `CO[C@H]1C[C@@H]2CC[C@@H](C)[C@@](O)(O2)C(=O)C(=O)N2CCCC[C@H]2C(=O)O[C@H]([C@H](C)C[C@@H]2CC[C@@H](O)[C@H](OC)C2)CC(=O)[C@H](C)/C=C(\C)[C@@H](O)[C@@H](OC)C(=O)[C@H](C)C[C@H](C)/C=C/C=C/C=C/1C` [SIROLIMUS], for which the IC50 entry (in data set [1]; in data set [2] (cho-k1); in data set [3]; in data set [4]; in data set [5]; at Glycine receptor) was “Not Active” in each case. Further, the IC50 result in data set [6] and in data set [7] was “Not Active” in each case. Further, the Ki entry in data set [1], in data set [3] and in data set [5] was “Not Active” in each case.

Regarding `CN[C@@H]1[C@H](O)[C@H](NC)[C@H]2O[C@@]3(O)C(=O)C[C@@H](C)O[C@H]3O[C@@H]2[C@H]1O` [SPECTINOMYCIN], the IC50 result (in data set [1]; in data set [2] (cho-k1); in data set [3]; in data set [4]; in data set [5]; against Glycine receptor) was “Not Active” each time. Further, the IC50 entry in data set [6] and in data set [7] was “Not Active” in each case. The Ki result in data set [1], in data set [3] and in data set [5] was “Not Active” each time.

Take `Nc1ccc(S(=O)(=O)Nc2ncccn2)cc1` [SULFADIAZINE]: the IC50 entry (in data set [1]; in data set [2] (cho-k1); in data set [3]; in data set [4]; in data set [5]; on Glycine receptor) was “Not Active” each time. The IC50 entry in data set [6] and in data set [7] was “Not Active” each time. For the same compound, the Ki result in data set [1], in data set [3] and in data set [5] was “Not Active” throughout.

For the compound `COc1ncnc(NS(=O)(=O)c2ccc(N)cc2)c1OC` [SULFADOXINE], the IC50 result (in data set [1]; in data set [2] (cho-k1); in data set [3]; in data set [4]; in data set [5]; on Glycine receptor) was “Not Active” throughout. In addition, the IC50 entry in data set [6] and in data set [7] was “Not Active” throughout. For the same compound, the Ki entry in data set [1], in data set [3] and in data set [5] was “Not Active” throughout.

Turning to `Nc1ccc(S(=O)(=O)Nc2nccs2)cc1` [SULFATHIAZOLE], the IC50 entry (in data set [1]; in data set [2] (cho-k1); in data set [3]; in data set [4]; in data set [5]; against Glycine receptor) was “Not Active” throughout. Also, the IC50 entry in data set [6] and in data set [7] was “Not Active” throughout. In addition, the Ki entry in data set [1], in data set [3] and in data set [5] was “Not Active” throughout.

As for `CC(C)(C)NC[C@H](O)COc1nsnc1N1CCOCC1` [TIMOLOL], the IC50 result (in data set [1]; in data set [2] (cho-k1); in data set [3]; in data set [4]; in data set [5]; against Glycine receptor) was “Not Active” throughout. In addition, the IC50 result in data set [6] and in data set [7] was “Not Active” in each case. Besides, the Ki entry in data set [1], in data set [3] and in data set [5] was “Not Active” throughout.

In the case of `CCS(=O)(=O)CCn1c([N+](=O)[O-])cnc1C` [TINIDAZOLE], the IC50 entry (in data set [1]; in data set [2] (cho-k1); in data set [3]; in data set [4]; in data set [5]; on Glycine receptor) was “Not Active” in each case. The IC50 entry in data set [6] and in data set [7] was “Not Active” each time. The Ki result in data set [1], in data set [3] and in data set [5] was “Not Active” each time.

`C[C@@H]1C[C@H]2[C@@H]3CCC4=CC(=O)C=C[C@]4(C)C3=CC[C@]2(C)[C@H]1C(=O)CN1CCN(c2cc(N3CCCC3)nc(N3CCCC3)n2)CC1` [TIRILAZAD]: the IC50 entry in data set [1] was “Not Active”; in data set [2] (read-out: IC50) it was 718 nM; in data set [3], “Not Active”; in data set [4], “Not Active”; in data set [5], “Not Active”; against Glycine receptor, “Not Active”. The concentration for half-maximal inhibition (IC50) result in data set [6] and in data set [7] was “Not Active” in each case. Also, the Ki entry in data set [1] is “Not Active”; in data set [2] (read-out: Ki), 376 nM; in data set [3] it was “Not Active”; in data set [5], “Not Active”.

In the case of `NC[C@H]1O[C@H](O[C@H]2[C@H](O)[C@@H](O[C@H]3O[C@H](CO)[C@@H](O)[C@H](N)[C@H]3O)[C@H](N)C[C@@H]2N)[C@H](N)C[C@@H]1O` [TOBRAMYCIN], the IC50 entry (in data set [1]; in data set [2] (cho-k1); in data set [3]; in data set [4]; in data set [5]; at Glycine receptor) was “Not Active” each time. In addition, the IC50 result in data set [6] and in data set [7] was “Not Active” in each case. Further, the Ki result in data set [1], in data set [3] and in data set [5] was “Not Active” in each case.

As for `COc1ccc(CN2CCNCC2)c(OC)c1OC` [TRIMETAZIDINE], the IC50 entry (in data set [1]; in data set [2] (cho-k1); in data set [3]; in data set [4]; in data set [5]; at Glycine receptor) was “Not Active” in each case. For the same compound, the IC50 result in data set [6] and in data set [7] was “Not Active” each time. The Ki result in data set [1], in data set [3] and in data set [5] was “Not Active” each time.
